Assay results published in US10597364B2, “Anthelmintic compounds, compositions and method of using thereof” (priority 2015, dated 2020).
Like-named read-outs stand apart in the source and are kept apart here.

Key:
[1] = system: Haemonchus contortus; assay: Method A: Haemonchus contortus L1 larval development/motility screen in microtitre plate; format: cell-based; conditions: 96 h, read-out: motility inhibition
[2] = system: microfilaria of Dirofilaria immitis; assay: Method C: microfilaria of Dirofilaria immitis motility screen; format: cell-based; conditions: read-out: inhibition of the microfilaria's motility
[3] = human, Caco-2, pH 6.5
Method: Permeability of Compounds.
An in vitro model utilizing Caco-2/TC7 cells is employed to assess the permeability characteristics of new chemical entities (NCEs).
The permeability studies were performed under standard conditions in the apical to basolateral (A→B) direction with a pH gradient and a BSA gradient (standard apical medium (0.5% BSA at pH 6.5)/standard basal medium (5% BSA at pH 7.4)); conditions that most closely reflect the conditions in the in vivo situation. Samples were deproteinized by the addition of 400 μl acetonitrile to 200 μl sample, followed by a 20-minute centrifugation at 1730 g. Compound solubilisation: compound solutions at final concentrations of 20 μM were prepared following dilutions of stock solutions (starting from 10 mM in DMSO) in HBSS. Final concentration of DMSO was adjusted to 1%. Analytical conditions: Supernatants recovered following centrifugation were analysed by LC/MS/MS using a reverse phase column and the mobile phases delivered at 0.3 ml/minute in a gradient: water (A) and acetonitrile (B) (each with 0.1% formic acid).
Every experiment (n) represents the mean of 3 filters per experiment.

[4] = system: Haemonchus contortus; assay: Method E: Haemonchus contortus in vivo in Mongolian jirds; conditions: oral gavage, 5 mg/kg, necropsy 3 days after treatment
Method: Method to test activity of compounds against Haemonchus contortus in vivo in Mongolian jirds (Meriones unguiculatus).
(§1) Mongolian jirds, at least five weeks old, that have been immunosuppressed were artificially infected with ensheathed Haemonchus contortus third instar larvae. Six days after infection, the jirds were treated by oral gavage with the test compounds, dissolved in a mixture of DMSO/corn oil, at doses of 5 mg/kg. Jirds treated only with the placebo (DMSO/corn oil carrier) served as controls. On day 9 (3 days after treatment) the jirds were euthanized and necropsied for recovery of parasites from the stomach. Efficacy was calculated as the average % reduction in the number of worms in each test group compared with the average number of worms from the control group. Compound 6 provided a 100% reduction in nematode infestation in Mongolian jirds treated by oral gavage with the test article at a dose of 5 mg/kg.

[5] = system: Trichostrongylus colubriformis; assay: Method F: Trichostrongylus colubriformis in vivo in Mongolian jirds; conditions: oral gavage, 5 mg/kg, necropsy 3 days after treatment
Method: as §1, with “Method to test activity of compounds against Trichostrongylus colubriformis in vivo in Mongolian jirds (Meriones unguiculatus). Mongolian jirds,” for “Mongolian jirds,”, “with ensheathed Trichostrongylus colubriformis third instar” for “with ensheathed Haemonchus contortus third instar”, “doses of […]. Jirds” for “doses of 5 mg/kg. Jirds”, “provided a 99% reduction in” for “provided a 100% reduction in”

[6] = system: anthelmintic-resistant isolate of Haemonchus contortus; assay: Method B: screen against anthelmintic-resistant (benzimidazole-resistant) isolate of Haemonchus contortus; conditions: benzimidazole-resistant H. contortus isolate
Source text: The conditions described in method A were used against an isolate of H. contortus found to be functionally resistant against the benzimidazole class of anthelmintics (e.g. 127-fold resistance to thiabendazole).

## CC(C)(C)OC(=O)N1CCN(c2ccnc(O[C@H]3CC[C@H](Nc4ccc([N+](=O)[O-])c(C(F)(F)F)c4)CC3)c2)CC1 [Compound 13]
[1]
  inhibition at 5 µM: ≥ 90%
[2]; 24 h
  inhibition at 5 ppm: ≥ 90%
[3]
  Papp A→B at 20 μM: 0.78 ×10⁻⁶ cm/s

## O=[N+]([O-])c1ccc(N[C@H]2CC[C@H](Oc3cncc(N4CCN(CC5CCCC5)CC4)c3)CC2)cc1C(F)(F)F [Compound 27]
[1]
  inhibition at 5 µM: ≥ 90%
[2]; 24 h
  inhibition at 10 µM: ≥ 90%
[3]
  Papp A→B at 20 μM: 2.33 ×10⁻⁶ cm/s

## CCCOC(=O)N1CCN(c2ccnc(O[C@H]3CC[C@H](Nc4ccc([N+](=O)[O-])c(C(F)(F)F)c4)CC3)c2)CC1 [Compound 36]
[1]
  inhibition at 5 µM: ≥ 90%
[2]; 24 h
  inhibition at 10 µM: ≥ 90%
[3]
  Papp A→B at 20 μM: 2.41 ×10⁻⁶ cm/s

## CC(C)(C)OC(=O)N1CCN(c2cncc(O[C@H]3CC[C@H](Nc4ccc([N+](=O)[O-])c(C(F)(F)F)c4)CC3)c2)CC1 [Compound 15]
[1]
  inhibition at 5 µM: ≥ 90%
[3]
  Papp A→B at 20 μM: 2.07 ×10⁻⁶ cm/s

## O=C(Oc1ccc(F)cc1)N1CCN(c2cncc(O[C@H]3CC[C@H](Nc4ccc([N+](=O)[O-])c(C(F)(F)F)c4)CC3)c2)CC1 [Compound 11]
[1]
  inhibition at 5 µM: ≥ 90%
[3]
  Papp A→B at 20 μM: 0.55 ×10⁻⁶ cm/s

## O=[N+]([O-])c1ccc(N[C@H]2CC[C@H](Oc3ccc(N4CCN(c5ccc6cc(C(F)(F)F)ccc6n5)CC4)nc3)CC2)cc1C(F)(F)F [Compound 102]
[3]
  Papp A→B at 20 μM: 0.01 ×10⁻⁶ cm/s

## O=C(Cc1ccc(F)cc1)N1CCN(c2ccnc(O[C@H]3CC[C@H](Nc4ccc([N+](=O)[O-])c(C(F)(F)F)c4)CC3)c2)CC1 [Compound 23]
[1]
  inhibition at 5 µM: ≥ 90%
[2]; 24 h
  inhibition at 10 µM: ≥ 90%
[3]
  Papp A→B at 20 μM: 1.09 ×10⁻⁶ cm/s

## O=[N+]([O-])c1ccc(N[C@H]2CC[C@H](Oc3cncc(N4CCN(Cc5ccc(F)cc5)CC4)c3)CC2)cc1C(F)(F)F [Compound 4, 4-nitro-N-[4-[(5-[4-[(4-fluorophenyl)methyl]piperazin-1-yl]pyridin-3-yl)oxy]cyclohexyl]-3-(trifluoromethyl)aniline]
[2]; 24 h
  inhibition at 1 µM: ≥ 90%
  inhibition at 10 µM: ≥ 90%
[3]
  Papp A→B at 20 μM: 1.84 ×10⁻⁶ cm/s

## O=C(CC1CCCC1)N1CCN(c2cc(O[C@H]3CC[C@H](Nc4ccc([N+](=O)[O-])c(C(F)(F)F)c4)CC3)ccn2)CC1 [Compound 3, 2-Cyclopentyl-1-[4-(4-[[4-[[4-nitro-3-(trifluoromethyl)phenyl]amino]cyclohexyl]oxy]pyridin-2-yl)piperazin-1-yl]ethan-1-one]
[2]; 24 h
  inhibition at 10 µM: ≥ 90%
[3]
  Papp A→B at 20 μM: 2.64 ×10⁻⁶ cm/s

## CCCCC(=O)N1CCN(c2ccnc(O[C@H]3CC[C@H](Nc4ccc([N+](=O)[O-])c(C(F)(F)F)c4)CC3)c2)CC1 [Compound 17]
[1]
  inhibition at 5 µM: ≥ 90%
[2]; 24 h
  inhibition at 5 ppm: ≥ 90%
[3]
  Papp A→B at 20 μM: 3.99 ×10⁻⁶ cm/s

## N#Cc1ccc(NC2CCC(Oc3cncc(N4CCN(c5ccc(C(F)(F)F)cn5)CC4)c3)CC2)cc1C(F)(F)F (stereo not shown) [Compound 6, 4-[[4-[(5-[4-[5-(trifluoromethyl)pyridin-2-yl]piperazin-1-yl]pyridin-3-yl)oxy]cyclohexyl]amino]-2-(trifluoromethyl)benzonitrile]
[1]
  inhibition at 5 µM: ≥ 90%
[4]
  reduction in nematode infestation: 100%
[5]
  reduction in nematode infestation: 99%
[3]
  Papp A→B at 20 μM: 0.64 ×10⁻⁶ cm/s

## CCCC(=O)N1CCN(c2cncc(O[C@H]3CC[C@H](Nc4ccc([N+](=O)[O-])c(C(F)(F)F)c4)CC3)c2)CC1 [Compound 31]
[1]
  inhibition at 5 µM: ≥ 90%
[3]
  Papp A→B at 20 μM: 10.7 ×10⁻⁶ cm/s

## O=C(CC1CCC1)N1CCN(c2cc(O[C@H]3CC[C@H](Nc4ccc([N+](=O)[O-])c(C(F)(F)F)c4)CC3)ccn2)CC1 [Compound 8]
[1]
  inhibition at 5 µM: ≥ 90%
[2]; 24 h
  inhibition at 10 µM: ≥ 90%
[3]
  Papp A→B at 20 μM: 4.01 ×10⁻⁶ cm/s

## CCCOC(=O)N1CCN(c2cncc(O[C@H]3CC[C@H](Nc4ccc([N+](=O)[O-])c(C(F)(F)F)c4)CC3)c2)CC1 [Compound 21]
[1]
  inhibition at 5 µM: ≥ 90%
[2]; 24 h
  inhibition at 5 ppm: ≥ 90%
[3]
  Papp A→B at 20 μM: 3.45 ×10⁻⁶ cm/s

## O=[N+]([O-])c1ccc(N[C@H]2CC[C@H](Oc3ccnc(N4CCN(CC5CCCC5)CC4)c3)CC2)cc1C(F)(F)F [Compound 37, 4-nitro-N-[4-([2-[4-(cyclopentylmethyl)piperazin-1-yl]pyridin-4-yl]oxy)cyclohexyl]-3-(trifluoromethyl)]
[1]
  inhibition at 5 µM: ≥ 90%
[2]; 24 h
  inhibition at 10 µM: ≥ 90%
[3]
  Papp A→B at 20 μM: 2.55 ×10⁻⁶ cm/s

## O=[N+]([O-])c1ccc(N[C@H]2CC[C@H](Oc3cncc(N4CCN(Cc5ccc(C(F)(F)F)cc5)CC4)c3)CC2)cc1C(F)(F)F [Compound 18]
[1]
  inhibition at 5 µM: ≥ 90%
[2]; 24 h
  inhibition at 10 µM: ≥ 90%
[3]
  Papp A→B at 20 μM: 0.53 ×10⁻⁶ cm/s

## O=C(Cc1ccc(F)cc1)N1CCN(c2cncc(O[C@H]3CC[C@H](Nc4ccc([N+](=O)[O-])c(C(F)(F)F)c4)CC3)c2)CC1 [Compound 22]
[1]
  inhibition at 5 µM: ≥ 90%
[2]; 10 μM, 24 hours
  inhibition at 10 µM: ≥ 90%
[3]
  Papp A→B at 20 μM: 1.57 ×10⁻⁶ cm/s

## O=C(CCC(F)(F)F)N1CCN(c2cc(O[C@H]3CC[C@H](Nc4ccc([N+](=O)[O-])c(C(F)(F)F)c4)CC3)ccn2)CC1 [Compound 24]
[1]
  inhibition at 5 µM: ≥ 90%
[2]; 24 h
  inhibition at 10 µM: ≥ 90%
[3]
  Papp A→B at 20 μM: 4.46 ×10⁻⁶ cm/s

## CC(C)(C)OC(=O)N1CCN(c2cc(O[C@H]3CC[C@H](Nc4ccc([N+](=O)[O-])c(C(F)(F)F)c4)CC3)ccn2)CC1 [Compound 34]
[1]
  inhibition at 5 µM: ≥ 90%
[2]; 24 h
  inhibition at 5 ppm: ≥ 90%
[3]
  Papp A→B at 20 μM: 1.77 ×10⁻⁶ cm/s

## CC(C)(C)CC(=O)N1CCN(c2cncc(O[C@H]3CC[C@H](Nc4ccc([N+](=O)[O-])c(C(F)(F)F)c4)CC3)c2)CC1 [Compound 35]
[1]
  inhibition at 5 µM: ≥ 90%
[2]; 24 h
  inhibition at 5 ppm: ≥ 90%
[3]
  Papp A→B at 20 μM: 4.99 ×10⁻⁶ cm/s

## O=C(CC1CCCCC1)N1CCN(c2cc(O[C@H]3CC[C@H](Nc4ccc([N+](=O)[O-])c(C(F)(F)F)c4)CC3)ccn2)CC1 [Compound 14]
[1]
  inhibition at 5 µM: ≥ 90%
[2]; 24 h
  inhibition at 10 µM: ≥ 90%
[3]
  Papp A→B at 20 μM: 2.28 ×10⁻⁶ cm/s

## c1ccc2[nH]c(-c3cscn3)nc2c1 [thiabendazole]
[6]
  resistance of the isolate to thiabendazole: 127 fold

## O=C(OC1CCCC1)N1CCN(c2ccnc(O[C@H]3CC[C@H](Nc4ccc([N+](=O)[O-])c(C(F)(F)F)c4)CC3)c2)CC1 [Compound 9, cyclopentyl 4-[2-[(4-[[4-nitro-3-(trifluoromethyl)phenyl]amino]cyclohexyl)oxy]pyridin-4-yl]piperazine-1-carboxylate]
[1]
  inhibition at 5 µM: ≥ 90%
[3]
  Papp A→B at 20 μM: 1.08 ×10⁻⁶ cm/s

## CCCCC(=O)N1CCN(c2cc(O[C@H]3CC[C@H](Nc4ccc([N+](=O)[O-])c(C(F)(F)F)c4)CC3)ccn2)CC1 [Compound 10]
[1]
  inhibition at 5 µM: ≥ 90%
[3]
  Papp A→B at 20 μM: 5.81 ×10⁻⁶ cm/s

## O=[N+]([O-])c1ccc(N[C@H]2CC[C@H](Oc3cc(N4CCN(C(=S)Nc5ccc(C(F)(F)F)cc5)CC4)ccn3)CC2)cc1C(F)(F)F [Compound 68, 4-[2-[(4-[[4-nitro-3-(trifluoromethyl)phenyl]amino]cyclohexyl)oxy]pyridin-4-yl]-N-[4-(trifluoromethyl)phenyl]piperazine-1-carbothioamide]
[1]
  inhibition at 5 µM: ≥ 90%
[2]; 24 h
  inhibition at 5 ppm: ≥ 90%

## CCCC(=O)N1CCN(c2cc(O[C@H]3CC[C@H](Nc4ccc([N+](=O)[O-])c(C(F)(F)F)c4)CC3)ccn2)CC1 [Compound 40]
[1]
  inhibition at 5 µM: ≥ 90%
[2]; 10 μM, 24 hours
  inhibition at 10 µM: ≥ 90%

## O=[N+]([O-])c1ccc(N[C@H]2CC[C@H](Oc3ccc(N4CCN(C/C=C/c5ccc(C(F)(F)F)cc5)CC4)nc3)CC2)cc1C(F)(F)F [Compound 80]
[1]
  inhibition at 5 µM: ≥ 90%
[2]; 24 h
  inhibition at 1 ppm: ≥ 90%
  inhibition at 5 ppm: ≥ 90%
